assay: Half-tongue test: recognition threshold for velvety mouthcoating, trained sensory panel; format: in vivo; conditions: Homo sapiens, pH 4.5, read-out: Mouthfeel threshold
Protocol: The threshold at which the compound delivered a noticeable velvety mouthcoating was evaluated as follows:
The isolated compound was suspended in water, and, after removing the volatiles in high vacuum (<5 mPa), was freeze-dried twice.
The freeze-dried sample was taken up in water, adjusted to pH 4.5 using hydrochloric acid, and stepwise diluted (1+1) with water. This is referred to herein as "sample 1". A second sample was prepared comprising water (Evian®) adjusted to pH 4.5 using hydrochloric acid. This is referred to herein as "sample 2". Both samples were stored at room temperature.
Twelve panelists with no history of known taste disorders were trained to evaluate the taste of aqueous solutions (2 mL each) of the following standard taste compounds in bottled water (pH 4.5) by using a triangle test as described in the literature (20): sucrose (50 mmol/L) for sweet taste, lactic acid (20 mmol/L) for sour taste, NaCl (20 mmol/L) for salty taste, caffeine (1 mmol/L) for bitter taste, sodium glutamate (3 mmol/L) for umami taste. For the puckering astringency and the velvety astringent, mouth-drying oral sensation, the panel was trained by using gallustannic acid (0.05%) and quercetin-3-O-β-D-glucopyranoside (0.01 mmol/L), respectively, using the half-tongue test (see Scharbert S., Holzmann N., Hofmann T. Identification of the astringent taste compounds in black tea infusions by combining instrumental analysis and human bioresponse. J. Agric. Food Chem. 2004, 52, 3498-3508).
Samples 1 and 2 were presented in order of increasing concentrations to the panel. The panelists, wearing noseclips, were asked to determine the dilution at which a difference was detectable between the samples using the "half-tongue" test. The test was performed three times. When the panelist selected correctly, the same concentration was presented again besides one blank as a proof for the correctness of the data. The geometric mean of the last and the second last concentration was calculated and taken as the individual recognition threshold. The values between individuals and between five separate sessions differed by not more than plus or minus one dilution step.
For comparison with the mouthfeel-enhancing threshold of known ingredients in vanilla extract, the half-tongue test was repeated using vanillic acid, p-hydroxybenzoic acid, guaiacol, p-hydroxybenzaldehyde and vanillin respectively instead of sample 1.

SMILES	minimal effective concentration [µM]
O=Cc1ccc(O)cc1 [p-hydroxybenzaldehyde]	205

same assay, conditions: Homo sapiens; half-tongue test, in water pH 4.5, twelve trained panelists wearing noseclips; geometric mean of last and second last concentration; read-out: Mouthfeel threshold

SMILES	minimal effective concentration [µM]
COc1cc(C(=O)O)ccc1O [Vanillic acid]	320
COc1ccccc1O [Guaiacol]	240
COc1cc(-c2cc(OC)c(O)c(-c3ccc(O)c(OC)c3)c2)ccc1O [Sample 1, triguaiacol]	0.01
O=C(O)c1ccc(O)cc1 [p-hydroxybenzoic acid]	250
COc1cc(C=O)ccc1O [Vanillin]	150
